Laboratory results as given in US6960574B2, “Antagonists of RF-amide neuropeptides” (University of Florida, priority 2002, dated 2005).
Peptide text beside a SMILES is read from it. * marks the point of attachment. Dansyl = CN(C)c1cccc2c(S(=O)(=O)*)cccc12

System: receptor labeled by the radioiodinated analogue of 1 (4, [125I]-YLFQPQRF-NH2); neuropeptide FF receptor
Experiment: Competitive radioligand binding against 4 ([125I]Y8F-amide)
Conditions: mixture-based positional scanning; difference from averaged radioligand displacement of whole library (0); about 80 a.u. = 10-fold change in Ki

| SMILES | Relative Binding Index (RBI) |
| --- | --- |
| CC(C)[C@H](NS(=O)(=O)c1cccc2c(N(C)C)cccc12)C(=O)N[C@@H](CCCCN)C(=O)N[C@@H](CCCNC(=N)N)C(N)=O [Dansyl-VKR-amide] (Dansyl-Val-Lys-Arg-NH2) | −7 a.u. |
| CC(C)C[C@H](NC(=O)[C@@H](NS(=O)(=O)c1cccc2c(N(C)C)cccc12)C(C)C)C(=O)N[C@@H](CCCNC(=N)N)C(N)=O [Dansyl-VLR-amide] (Dansyl-Val-Leu-Arg-NH2) | −13 a.u. |
| CSCC[C@H](NC(=O)[C@@H](NS(=O)(=O)c1cccc2c(N(C)C)cccc12)C(C)C)C(=O)N[C@@H](CCCNC(=N)N)C(N)=O [Dansyl-VMR-amide] (Dansyl-Val-Met-Arg-NH2) | −4 a.u. |
| CC(C)[C@H](NS(=O)(=O)c1cccc2c(N(C)C)cccc12)C(=O)N[C@@H](CC(N)=O)C(=O)N[C@@H](CCCNC(=N)N)C(N)=O [Dansyl-VNR-amide] (Dansyl-Val-Asn-Arg-NH2) | −3 a.u. |
| CC(C)[C@H](NS(=O)(=O)c1cccc2c(N(C)C)cccc12)C(=O)N1CCC[C@H]1C(=O)N[C@@H](CCCNC(=N)N)C(N)=O [Dansyl-VPR-amide] (Dansyl-Val-Pro-Arg-NH2) | −1 a.u. |
| CC(C)[C@H](NS(=O)(=O)c1cccc2c(N(C)C)cccc12)C(=O)N[C@@H](CCC(N)=O)C(=O)N[C@@H](CCCNC(=N)N)C(N)=O [Dansyl-VQR-amide] (Dansyl-Val-Gln-Arg-NH2) | 9 a.u. |
| CC(C)[C@H](NS(=O)(=O)c1cccc2c(N(C)C)cccc12)C(=O)N[C@@H](CCCNC(=N)N)C(=O)N[C@@H](CCCNC(=N)N)C(N)=O [Dansyl-VRR-amide] (Dansyl-Val-Arg-Arg-NH2) | −6 a.u. |
| CC(C)[C@H](NS(=O)(=O)c1cccc2c(N(C)C)cccc12)C(=O)N[C@@H](CO)C(=O)N[C@@H](CCCNC(=N)N)C(N)=O [Dansyl-VSR-amide] | 16 a.u. |
| CC(C)[C@H](NS(=O)(=O)c1cccc2c(N(C)C)cccc12)C(=O)N[C@H](C(=O)N[C@@H](CCCNC(=N)N)C(N)=O)[C@@H](C)O [Dansyl-VTR-amide] (Dansyl-Val-Thr-Arg-NH2) | 1 a.u. |
| CC(C)[C@H](NC(=O)[C@@H](NS(=O)(=O)c1cccc2c(N(C)C)cccc12)C(C)C)C(=O)N[C@@H](CCCNC(=N)N)C(N)=O [Dansyl-VVR-amide] (Dansyl-Val-Val-Arg-NH2) | −9 a.u. |
| CC(C)[C@H](NS(=O)(=O)c1cccc2c(N(C)C)cccc12)C(=O)N[C@@H](Cc1c[nH]c2ccccc12)C(=O)N[C@@H](CCCNC(=N)N)C(N)=O [Dansyl-VWR-amide] (Dansyl-Val-Trp-Arg-NH2) | 4 a.u. |
| CC(C)[C@H](NS(=O)(=O)c1cccc2c(N(C)C)cccc12)C(=O)N[C@@H](Cc1ccc(O)cc1)C(=O)N[C@@H](CCCNC(=N)N)C(N)=O [Dansyl-VYR-amide] (Dansyl-Val-Tyr-Arg-NH2) | −6 a.u. |
| CCC(C)C(NC(=O)C(Cc1c[nH]c2ccccc12)NS(=O)(=O)c1cccc2c(N(C)C)cccc12)C(=O)NC(CCCNC(=N)N)C(N)=O (stereo not drawn) [Dansyl-WIR-amide] (Dansyl-Trp-Ile-Arg-NH2; configuration not given here) | 15 a.u. |
| CN(C)c1cccc2c(S(=O)(=O)N[C@@H](Cc3c[nH]c4ccccc34)C(=O)N3CCC[C@H]3C(=O)N[C@@H](CCCNC(=N)N)C(N)=O)cccc12 [Dansyl-WPR-amide] (Dansyl-Trp-Pro-Arg-NH2) | 12 a.u. |
| CN(C)c1cccc2c(S(=O)(=O)N[C@@H](Cc3c[nH]c4ccccc34)C(=O)N[C@@H](CCCNC(=N)N)C(=O)N[C@@H](CCCNC(=N)N)C(N)=O)cccc12 [Dansyl-WRR-amide] (Dansyl-Trp-Arg-Arg-NH2) | 7 a.u. |
| C[C@H](NC(=O)[C@H](Cc1ccc(O)cc1)NS(=O)(=O)c1cccc2c(N(C)C)cccc12)C(=O)N[C@@H](CCCNC(=N)N)C(N)=O [Dansyl-YAR-amide] (Dansyl-Tyr-Ala-Arg-NH2) | −42 a.u. |
| CN(C)c1cccc2c(S(=O)(=O)N[C@@H](Cc3ccc(O)cc3)C(=O)N[C@@H](CC(=O)O)C(=O)N[C@@H](CCCNC(=N)N)C(N)=O)cccc12 [Dansyl-YDR-amide] (Dansyl-Tyr-Asp-Arg-NH2) | −11 a.u. |
| CN(C)c1cccc2c(S(=O)(=O)N[C@@H](Cc3ccc(O)cc3)C(=O)N[C@@H](CCC(=O)O)C(=O)N[C@@H](CCCNC(=N)N)C(N)=O)cccc12 [Dansyl-YER-amide] (Dansyl-Tyr-Glu-Arg-NH2) | 7 a.u. |
| CN(C)c1cccc2c(S(=O)(=O)N[C@@H](Cc3ccc(O)cc3)C(=O)NCC(=O)N[C@@H](CCCNC(=N)N)C(N)=O)cccc12 [Dansyl-YGR-amide] (Dansyl-Tyr-Gly-Arg-NH2) | 12 a.u. |
| CC[C@H](C)[C@H](NC(=O)[C@H](Cc1ccc(O)cc1)NS(=O)(=O)c1cccc2c(N(C)C)cccc12)C(=O)N[C@@H](CCCNC(=N)N)C(N)=O [Dansyl-YIR-amide] (Dansyl-Tyr-Ile-Arg-NH2) | 13 a.u. |
| CN(C)c1cccc2c(S(=O)(=O)N[C@@H](Cc3ccc(O)cc3)C(=O)N[C@@H](CCCCN)C(=O)N[C@@H](CCCNC(=N)N)C(N)=O)cccc12 [Dansyl-YKR-amide] (Dansyl-Tyr-Lys-Arg-NH2) | 5 a.u. |

Second part, the compound after the results:

| Relative Binding Index (RBI) | SMILES |
| --- | --- |
| −40 a.u. | C[C@H](NC(=O)[C@H](Cc1c[nH]c2ccccc12)NS(=O)(=O)c1cccc2c(N(C)C)cccc12)C(=O)N[C@@H](CCCNC(=N)N)C(N)=O [Dansyl-WAR-amide] (Dansyl-Trp-Ala-Arg-NH2) |
| −9 a.u. | CN(C)c1cccc2c(S(=O)(=O)N[C@@H](Cc3c[nH]c4ccccc34)C(=O)N[C@@H](CC(=O)O)C(=O)N[C@@H](CCCNC(=N)N)C(N)=O)cccc12 [Dansyl-WDR-amide] (Dansyl-Trp-Asp-Arg-NH2) |
| 9 a.u. | CN(C)c1cccc2c(S(=O)(=O)N[C@@H](Cc3c[nH]c4ccccc34)C(=O)N[C@@H](CCC(=O)O)C(=O)N[C@@H](CCCNC(=N)N)C(N)=O)cccc12 [Dansyl-WER-amide] (Dansyl-Trp-Glu-Arg-NH2) |
| 7 a.u. | CN(C)c1cccc2c(S(=O)(=O)N[C@@H](Cc3c[nH]c4ccccc34)C(=O)N[C@@H](Cc3ccccc3)C(=O)N[C@@H](CCCNC(=N)N)C(N)=O)cccc12 [Dansyl-WFR-amide] |
| 14 a.u. | CN(C)c1cccc2c(S(=O)(=O)N[C@@H](Cc3c[nH]c4ccccc34)C(=O)NCC(=O)N[C@@H](CCCNC(=N)N)C(N)=O)cccc12 [Dansyl-WGR-amide] (Dansyl-Trp-Gly-Arg-NH2) |
| 3 a.u. | CN(C)c1cccc2c(S(=O)(=O)N[C@@H](Cc3c[nH]c4ccccc34)C(=O)N[C@@H](Cc3c[nH]cn3)C(=O)N[C@@H](CCCNC(=N)N)C(N)=O)cccc12 [Dansyl-WHR-amide] (Dansyl-Trp-His-Arg-NH2) |
| 6 a.u. | CN(C)c1cccc2c(S(=O)(=O)N[C@@H](Cc3c[nH]c4ccccc34)C(=O)N[C@@H](CCCCN)C(=O)N[C@@H](CCCNC(=N)N)C(N)=O)cccc12 [Dansyl-WKR-amide] (Dansyl-Trp-Lys-Arg-NH2) |
| 0 a.u. | CC(C)C[C@H](NC(=O)[C@H](Cc1c[nH]c2ccccc12)NS(=O)(=O)c1cccc2c(N(C)C)cccc12)C(=O)N[C@@H](CCCNC(=N)N)C(N)=O [Dansyl-WLR-amide] |
| 9 a.u. | CSCC[C@H](NC(=O)[C@H](Cc1c[nH]c2ccccc12)NS(=O)(=O)c1cccc2c(N(C)C)cccc12)C(=O)N[C@@H](CCCNC(=N)N)C(N)=O [Dansyl-WMR-amide] (Dansyl-Trp-Met-Arg-NH2) |
| 10 a.u. | CN(C)c1cccc2c(S(=O)(=O)N[C@@H](Cc3c[nH]c4ccccc34)C(=O)N[C@@H](CC(N)=O)C(=O)N[C@@H](CCCNC(=N)N)C(N)=O)cccc12 [Dansyl-WNR-amide] (Dansyl-Trp-Asn-Arg-NH2) |
| 22 a.u. | CN(C)c1cccc2c(S(=O)(=O)N[C@@H](Cc3c[nH]c4ccccc34)C(=O)N[C@@H](CCC(N)=O)C(=O)N[C@@H](CCCNC(=N)N)C(N)=O)cccc12 [Dansyl-WQR-amide] (Dansyl-Trp-Gln-Arg-NH2) |
| 29 a.u. | CN(C)c1cccc2c(S(=O)(=O)N[C@@H](Cc3c[nH]c4ccccc34)C(=O)N[C@@H](CO)C(=O)N[C@@H](CCCNC(=N)N)C(N)=O)cccc12 [Dansyl-WSR-amide] (Dansyl-Trp-Ser-Arg-NH2) |
| 14 a.u. | C[C@@H](O)[C@H](NC(=O)[C@H](Cc1c[nH]c2ccccc12)NS(=O)(=O)c1cccc2c(N(C)C)cccc12)C(=O)N[C@@H](CCCNC(=N)N)C(N)=O [Dansyl-WTR-amide] (Dansyl-Trp-Thr-Arg-NH2) |
| 4 a.u. | CC(C)[C@H](NC(=O)[C@H](Cc1c[nH]c2ccccc12)NS(=O)(=O)c1cccc2c(N(C)C)cccc12)C(=O)N[C@@H](CCCNC(=N)N)C(N)=O [Dansyl-WVR-amide] (Dansyl-Trp-Val-Arg-NH2) |
| 17 a.u. | CN(C)c1cccc2c(S(=O)(=O)N[C@@H](Cc3c[nH]c4ccccc34)C(=O)N[C@@H](Cc3c[nH]c4ccccc34)C(=O)N[C@@H](CCCNC(=N)N)C(N)=O)cccc12 [Dansyl-WWR-amide] (Dansyl-Trp-Trp-Arg-NH2) |
| 7 a.u. | CN(C)c1cccc2c(S(=O)(=O)N[C@@H](Cc3c[nH]c4ccccc34)C(=O)N[C@@H](Cc3ccc(O)cc3)C(=O)N[C@@H](CCCNC(=N)N)C(N)=O)cccc12 [Dansyl-WYR-amide] (Dansyl-Trp-Tyr-Arg-NH2) |
| 6 a.u. | CN(C)c1cccc2c(S(=O)(=O)N[C@@H](Cc3ccc(O)cc3)C(=O)N[C@@H](Cc3ccccc3)C(=O)N[C@@H](CCCNC(=N)N)C(N)=O)cccc12 [Dansyl-YFR-amide] (Dansyl-Tyr-Phe-Arg-NH2) |
| 1 a.u. | CN(C)c1cccc2c(S(=O)(=O)N[C@@H](Cc3ccc(O)cc3)C(=O)N[C@@H](Cc3cnc[nH]3)C(=O)N[C@@H](CCCNC(=N)N)C(N)=O)cccc12 [Dansyl-YHR-amide] (Dansyl-Tyr-His-Arg-NH2) |
